Structures are written as SMILES. Structures can show the parent of a compound that is named as a salt. Bounds are passed on as bounds.

These results are taken from US6984649B1, “Pyridine derivatives” (Bayer Aktiengesellschaft, priority 2000, dated 2006).

The first test has as its target T1, human IKK-β (Homo sapiens, UniProt O14920).
T1 construct: A cDNA fragment encoding human IKK-β open reading frame was generated by PCR; His tag (from pcDNA3.1/His C); made in house; host or cells: Sf21 insect cells (baculovirus); substrate made in E. coli
T1 sequence (O14920 1-756): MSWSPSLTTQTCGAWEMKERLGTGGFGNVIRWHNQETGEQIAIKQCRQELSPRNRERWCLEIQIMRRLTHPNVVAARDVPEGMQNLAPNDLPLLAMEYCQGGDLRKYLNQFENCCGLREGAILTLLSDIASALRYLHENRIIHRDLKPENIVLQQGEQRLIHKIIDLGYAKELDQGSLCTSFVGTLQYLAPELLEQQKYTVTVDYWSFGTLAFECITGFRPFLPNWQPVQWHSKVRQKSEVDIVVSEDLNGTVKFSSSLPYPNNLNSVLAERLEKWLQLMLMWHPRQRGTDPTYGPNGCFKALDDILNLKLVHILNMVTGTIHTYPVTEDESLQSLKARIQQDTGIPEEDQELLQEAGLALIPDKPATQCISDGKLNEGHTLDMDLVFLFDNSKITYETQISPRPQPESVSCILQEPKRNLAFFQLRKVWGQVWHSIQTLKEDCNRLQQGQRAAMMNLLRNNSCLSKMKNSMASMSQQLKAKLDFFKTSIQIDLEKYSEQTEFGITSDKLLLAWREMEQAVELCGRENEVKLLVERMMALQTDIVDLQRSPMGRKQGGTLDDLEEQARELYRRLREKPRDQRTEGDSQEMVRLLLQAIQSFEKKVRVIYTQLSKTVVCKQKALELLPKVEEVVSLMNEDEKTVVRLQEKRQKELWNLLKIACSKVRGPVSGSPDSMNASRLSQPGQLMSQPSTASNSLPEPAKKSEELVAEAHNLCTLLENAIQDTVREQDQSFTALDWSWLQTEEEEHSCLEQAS
Kind of test: IKK-β kinase inhibitory assay. In kind it is biochemical. The settings on record: compounds as yielded by solid phase synthesis, purity about 40 to 90%, read-out: In vitro activity grade (In vitro IC50). The source says: [IKK-β Kinase Inhibitory Assay]
(1) Preparation of IKK-β Kinase Protein.
• A cDNA fragment encoding human IKK-β open reading frame was generated by PCR with the use of a pair of primers designed from the published sequence (Woronicz J D et al. (1997) Science 278, 866-869). A template was obtained from Quickclone cDNA (Clontech) using Elongase™ Amplification kit (Life Technologies). The DNA fragments generated by PCR were gel-purified and subcloned into pBluescript. The cDNA fragment cloned in pBluescript was inserted into pcDNA3.1/His C KpnI/NotI, and transferred into pVL1393 SmaI/XbaI (Pharmingen) to construct a baculovirus transfer vector. Then the vector, together with the linearized baculovirus (BaculoGold™, Pharmingen) was used to transfect Sf21 cells (Invitrogen, San Diego, Calif.). Generated recombinant baculovirus was cloned and amplified in Sf21 cells, grown in TNM-FH insect cell medium (Life Technologies, Inc.) supplemented with 10% FCS, […] Gentamycin, 0.1% Pluronic F-68 (Life Technologies, Inc.) as suspension culture (200 ml in 1 L Erlenmeyer flask; 27° C.; 130 rpm). Sf21 cells were infected with this amplified virus with a multiplicity of infection of 5 following standard protocols (Crossen R, Gruenwald S (1997) Baculovirus Expression Vector System Instruction Manual, Pharmingen Corporation) and harvested 48 hrs later. The cells were lysed to obtain the produced chimeric protein of IKK-β kinase fused by histidine (His-tagged IKK-beta). (2) The Preparation of Purified GST-IκBα Fusion Proteins • An expression vector containing the nucleotide sequence encoding fusion protein of GST with amino acid residues 1 to 54 of IκBα under the control of an IPTG-inducible promoter was constructed. The expression vector was introduced in E. coli and the transformant was cultured and lysed to obtain a GST-IκBα fusion protein. Then the resulting GST-IκBα fusion protein was purified and biotinated for kinase assay. (3) The Measurement of IKK-β Kinase Activity • The 96-well format kinase assay of IKK-β were performed to test the inhibitory activity of the compounds of the present invention. First, 5 μl of a test compound was put in the presence of 2.5% dimethyl sulfoxide (DMSO) in each well in a U-bottomed 96-well plate (Falcon). For control wells of background (BG) and total phosphorylation (TP), 5 μl of 2.5% DMSO was put. Recombinant IKK-β (final 0.6 μg/ml) and bio-GST-IκBα (1-54) (final 0.2 μM) were diluted in 25 μl of 2×kinase buffer β (40 mM Tris-HCl, pH 7.6, 40 mM MgCl2, 40 mM β-glycerophosphate, 40 mM p-nitrophenylphosphate, 2 mM EDTA, 40 mM creatine phosphate, 2 mM DTT, 2 mM Na3VO4, 0.2 mg/ml BSA and 0.8 mM phenylmethylsulfonyl fluoride) and transferred to the 96-well plate. Bio-GST-IκBα (1-54) in 25 μl of 2×kinase buffer β without IKK-β was transferred to BG wells. Then 20 μl of 12.5 μM ATP, 62.5 μCi/ml [γ-^33P] ATP (Amersham Pharmacia Biotech) was added and the resulting mixture was incubated for 2 hrs at room temperature. The kinase reactions were terminated by the addition of 150 μl of termination buffer (100 mM EDTA, 1 mg/ml BSA, 0.2 mg NaN3). One hundred and fifty μl of the sample were transferred to a streptavidin-coated, white MTP (Steffens Biotechniche Analysen GmbH #08114E14.FWD) to capture the biotinylated substrates. After 1 hr of incubation, non-bound radioactivity was eliminated by washing the wells five times with 300 μl of washing buffer including 0.9% NaCl and 0.1% (w/v) Tween-20 with the use of a MW-96 plate washer (BioTec). The bound radioactivity was determined after the addition of 170 μl MicroScint-PS scintillation cocktail (Packard) using a TopCount scintillation counter. [Syk Tyrosine Kinase Inhibitory Assay for Selectivity] (1) Preparation of Syk Protein • A cDNA fragment encoding human Syk openreading frame was cloned from total RNA of human Burkitt's lymphoma B cell lines, Raji (American Type Culture Collection), with the use of RT-PCR method.
In general, IC50 refers to the midpoint of a concentration-inhibition curve. Consider `CCCCOc1cccc(O)c1-c1cc(C2CCNCC2)c(C#N)c(N)n1` [Example 2-72], for which the IC50 is less than 0.5 µM.
The same measure, in the same setting: under `N#Cc1c([C@@H]2Cc3ccccc3CN2)cc(-c2ccccc2O)nc1N` [Example 1-27] stands 2 to 10 µM.
For the molecule `N#Cc1c(C2CCCNC2)cc(-c2ccccc2O)nc1N1CCNCC1` (centres unmarked) [Example 4-5, 6-(2-hydroxyphenyl)-2-(1-piperazinyl)-4-(3-piperidinyl)nicotinonitrile dihydrochloride], the IC50 is greater than 10 µM.
As to `N#Cc1c(N2CCCCC2)cc(-c2ccccc2O)nc1N` [Example 34-05], the IC50 was greater than 10 µM.
With `N#Cc1c(C2CNc3ccccc3C2)cc(-c2ccccc2O)nc1N` (centres unmarked) [Example 1-16], the half-inhibitory concentration (IC50) was greater than 10 µM.
For the molecule `Cn1c(=O)[nH]c2nc(-c3c(O)cccc3OCC3CC3)cc(C3CCCNC3)c2c1=O` (centres unmarked) [Example 10-2, 7-(2-Cyclopropylmethoxy-6-hydroxy-phenyl)-3-methyl-5-piperidin-3-yl-1H-pyrido[2,3-d]pyrimidine-2,4-dione], the IC50 is less than 0.5 µM.
On the same count and under the same terms, then `N#Cc1c(NCCN)cc(-c2c(O)cccc2OCC2CC2)nc1N` [Example 34-14], with less than 0.5 µM.

The test system of another test is A549 human lung epithelium cell line. Kind of test: RANTES production in response to TNF-α from A549 cells. In kind it is cell-based. Particulars: Homo sapiens, A549, A549 cells, 100 ng/ml TNF-α, read-out: Cellular activity grade (A549) (Cellular IC50). The method, then: [The Measurement of RANTES Production in Response to TNF-α from A549 Cells]
(1) Preparation of A549 Cells
• The A549 human lung epithelium cell line (ATCC […]) was maintained in Dulbecco's modified Eagle's medium (D-MEM, Nikken Biomedical Institute) supplemented with 10% FCS (Gibco), 100 U/ml penicillin, 100 μg/ml streptomycin, and 2 mM glutamine (culture medium). Forty thousand (4×10^4) cells (80 μl/well) were seeded in each well of 96 well flat-bottom tissue culture plate (Falcon #3072). The plate was allowed to stand for 2 hrs, thus the cells were adhered to the bottom of each well. To the each well was added 10 μl vehicle (1% DMSO), serial dilutions of test compounds in 1% DMSO, or 5 nM Dexamethasone in 1% DMSO as a reference. The mixture (90 μl/well) was incubated for 1 hr at 37° C. After 1 hr, 1 μg/ml TNF-α (10 μl) in culture medium was added to the mixture to obtain 100 μl of reaction mixture. The reaction mixture was cultured for 24 hrs to stimulate the cells with 100 ng/ml TNF-α. Cells with vehicle without TNF-α stimulation were also prepared. (2) Measurement of RANTES Production • Then the concentration of RANTES released from the cells in the supernatants of each well was determined using a quantitative sandwich enzyme immunoassay technique. First, 2 μg/ml mouse anti-huRANTES mAb (R&D Systems, #mAb678) in PBS buffer (pH 7.4, 100 μl) was put in each well of 96-well NUNC fluoro plate (Nalge Nunc, New York USA) (Final 200 ng/well) and the plate was allowed to stand for overnight at 4° C. to be coated by the antibody. Each well of the plate was then washed with 350 μl wash buffer (0.05% Tween-20, 0.85% NaCl, and 25 mM Tris/HCl pH7.4) for three times. Blocking buffer containing 1% BSA (Sigma 99% pure, 100 g), 5% sucrose (Nacalai tesque, 99% pure, 500 g), and 0.02% azide (Nacalai tesque, 100%, 500 g) were added (200 μl) to each well and then the plate was allowed to stand for 4 hours to stabilize the coated antibody. Next, 50 μl supernatants of cell culture prepared in (1) above were put in each well of the 96-well NUNC fluoro plate with coated antibody. Recombinant Human RANTES (Pepro Tech, Inc. #300-06) was used as the standard for the determination of RANTES production (linear range between 1 and 10 ng/ml). Eu-labelled mouse anti-huRANES mAb (60 ng/ml: R&D Systems, #mAb278) in PBS supplemented by 1% BSA and 0.05% Tween 20 was added (50 μl) to each well. The reaction mixtures were incubated at room temperature for 4 hrs. After washing with wash buffer (0.05% Tween-20, 0.85% NaCl, and 25 mM Tris/HCl pH7.4, 350 μl/well) for 5 times with the use of a Sera Washer (Bio-Tech, #MW-96R), the enhancement solution (DELFIA, #1244-405, 100 μl/well) was added to each well. The plate was incubated for 10 minutes at room temperature with moderate shaking. Fluorescent intensity was measured using a DELFIA fluorimeter (Wallac). Excitation was performed at 340 nm and emission was measured at 615 nm. [The Measurement of TNF-α Production in Response to LPS from Peripheral Blood Mononuclear Cells (PBMC)] (1) Preparation of PBMC • Human PBMC were prepared by first obtaining blood from healthy donors and isolating the cells from the blood. The isolation was done by Ficoll gradient-centrifugation method using Ficoll Pacque (Pharmacia #17-1440-02). Within three hours from donation, the isolated PBMC was used. After three times washing with PBS, PBMC were resuspended with RPMI 1640 (Nikken BioMedical Institute) supplemented with 10% FCS (Gibco), 100 U/ml penicillin, 100 μg/ml streptomycin, and 2 mM glutamine (culture medium). The cells (1×10^5 in 150 μL/well) were seeded in each well of 96 well flat-bottom tissue culture plate (Falcon #3072). To the each well was added 20 μl vehicle (1% DMSO), serial dilutions of test compounds in 1% DMSO, or 250 nM Dexamethasone in 1% DMSO as a reference. The mixture (170 μl/well) was incubated for 1 hr at 37° C. After 1 hr, 20 ng/ml LPS (30 μl) in culture medium was added to the mixture to obtain 200 μl of reaction mixture. […]
Consider `O=C1Nc2nc(-c3c(O)cccc3OCC3CC3)cc(C3CCCNC3)c2CO1` (centres unmarked) [Example 18-1, 7-[2-(cyclopropylmethoxy)-6-hydroxyphenyl]-5-(3-piperidinyl)-1,4-dihydro-2H-pyrido[2,3-d][1,3]oxazin-2-one hydrochloride], for which the IC50 is less than 1000 nM.
